Experimental data from PubChem BioAssay (NCI).
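These data come from cells grown in 96-well plates and exposed to compound for 48 hours at five concentrations. At the TGI there is no net growth.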

Legend:
Assay in all cases: inhibition of tumour cell growth, NCI panel, 48 h
KM12 colon = tested on: KM12 colon
RPMI-8226 leukemia = tested on: RPMI-8226 leukemia
UACC-257 melanoma = tested on: UACC-257 melanoma
SNB-75 CNS = tested on: SNB-75 CNS
A498 renal = tested on: A498 renal
SNB-19 CNS = tested on: SNB-19 CNS
SK-MEL-2 melanoma = tested on: SK-MEL-2 melanoma
A549 NSCLC = tested on: A549 NSCLC
HT29 colon = tested on: HT29 colon
OVCAR-5 ovarian = tested on: OVCAR-5 ovarian
SF-539 CNS = tested on: SF-539 CNS
HS 578T breast = tested on: HS 578T breast
SF-295 CNS = tested on: SF-295 CNS
COLO 205 colon = tested on: COLO 205 colon
T-47D breast = tested on: T-47D breast
NCI-H23 lung = tested on: NCI-H23 lung
IGROV1 ovarian = tested on: IGROV1 ovarian
786-0 renal = tested on: 786-0 renal
NCI-H522 lung = tested on: NCI-H522 lung
NCI-H460 lung = tested on: NCI-H460 lung
UACC-62 melanoma = tested on: UACC-62 melanoma
SK-MEL-5 melanoma = tested on: SK-MEL-5 melanoma
MDA-MB-231 breast = tested on: MDA-MB-231 breast
CCRF-CEM leukemia = tested on: CCRF-CEM leukemia
CAKI-1 renal = tested on: CAKI-1 renal
OVCAR-8 ovarian = tested on: OVCAR-8 ovarian
MDA-N = tested on: MDA-N
TK-10 renal = tested on: TK-10 renal
ACHN renal = tested on: ACHN renal
U251 CNS = tested on: U251 CNS
K-562 leukemia = tested on: K-562 leukemia
EKVX NSCLC = tested on: EKVX NSCLC
PC-3 prostate = tested on: PC-3 prostate
DU-145 prostate = tested on: DU-145 prostate
SW-620 colon = tested on: SW-620 colon
SN12C renal = tested on: SN12C renal
HCC-2998 colon = tested on: HCC-2998 colon
SK-MEL-28 melanoma = tested on: SK-MEL-28 melanoma
HCT-116 colon = tested on: HCT-116 colon
OVCAR-4 ovarian = tested on: OVCAR-4 ovarian
LOX IMVI melanoma = tested on: LOX IMVI melanoma
M14 melanoma = tested on: M14 melanoma
MOLT-4 leukemia = tested on: MOLT-4 leukemia
MCF7 breast = tested on: MCF7 breast
RXF 393 renal = tested on: RXF 393 renal
UO-31 renal = tested on: UO-31 renal
HOP-92 NSCLC = tested on: HOP-92 NSCLC
OVCAR-3 ovarian = tested on: OVCAR-3 ovarian
BT-549 breast = tested on: BT-549 breast
SK-OV-3 ovarian = tested on: SK-OV-3 ovarian
MALME-3M melanoma = tested on: MALME-3M melanoma
HCT-15 colon = tested on: HCT-15 colon
MDA-MB-435 = tested on: MDA-MB-435
SF-268 CNS = tested on: SF-268 CNS
NCI/ADR-RES ovarian = tested on: NCI/ADR-RES ovarian
HL-60(TB) leukemia = tested on: HL-60(TB) leukemia

`O=C(O)C1CCCCC1c1c2ccc(=O)cc-2oc2cc(O)ccc12` (stereo unspecified) showed a TGI (KM12 colon) of 49.1 µM, a TGI (RPMI-8226 leukemia) of over 100 µM and a TGI (UACC-257 melanoma) of over 100 µM. For the same molecule, the TGI (SNB-75 CNS) was 72.1 µM, the TGI (A498 renal) was over 100 µM and the TGI (SNB-19 CNS) was over 100 µM. The TGI (SK-MEL-2 melanoma) was over 100 µM, the TGI (A549 NSCLC) was over 100 µM and the TGI (HT29 colon) was over 100 µM. For the same molecule, the TGI (OVCAR-5 ovarian) was over 100 µM, the TGI (SF-539 CNS) was 48.7 µM and the TGI (HS 578T breast) was 96.7 µM. For the same molecule, the TGI (SF-295 CNS) was over 100 µM, the TGI (COLO 205 colon) was over 100 µM and the TGI (T-47D breast) was 54.4 µM. The TGI (NCI-H23 lung) was over 100 µM, the TGI (IGROV1 ovarian) was 41.3 µM and the TGI (786-0 renal) was over 100 µM. The TGI (NCI-H522 lung) was 62.1 µM, the TGI (NCI-H460 lung) was over 100 µM and the TGI (UACC-62 melanoma) was over 100 µM. For the same molecule, the TGI (SK-MEL-5 melanoma) was over 100 µM, the TGI (MDA-MB-231 breast) was over 100 µM and the TGI (CCRF-CEM leukemia) was over 100 µM. The TGI (CAKI-1 renal) was over 100 µM, the TGI (OVCAR-8 ovarian) was 90.8 µM and the TGI (MDA-N) was over 100 µM. It also gave a TGI (TK-10 renal) of over 100 µM, a TGI (ACHN renal) of over 100 µM and a TGI (U251 CNS) of 96.9 µM. The TGI (K-562 leukemia) was over 100 µM, the TGI (EKVX NSCLC) was over 100 µM and the TGI (PC-3 prostate) was over 100 µM. The TGI (DU-145 prostate) was 66.7 µM, the TGI (SW-620 colon) was over 100 µM and the TGI (SN12C renal) was over 100 µM. The TGI (HCC-2998 colon) was over 100 µM, the TGI (SK-MEL-28 melanoma) was over 100 µM and the TGI (HCT-116 colon) was over 100 µM. It also gave a TGI (OVCAR-4 ovarian) of 88.1 µM, a TGI (LOX IMVI melanoma) of over 100 µM and a TGI (M14 melanoma) of 78.6 µM. It also gave a TGI (MOLT-4 leukemia) of over 100 µM, a TGI (MCF7 breast) of over 100 µM and a TGI (RXF 393 renal) of 62.6 µM. For the same molecule, the TGI (UO-31 renal) was over 100 µM, the TGI (HOP-92 NSCLC) was 41.1 µM and the TGI (OVCAR-3 ovarian) was 69.2 µM. It also gave a TGI (BT-549 breast) of over 100 µM, a TGI (SK-OV-3 ovarian) of 96.5 µM and a TGI (MALME-3M melanoma) of over 100 µM. It also gave a TGI (HCT-15 colon) of over 100 µM, a TGI (MDA-MB-435) of 49.3 µM and a TGI (SF-268 CNS) of over 100 µM. It also gave a TGI (NCI/ADR-RES ovarian) of over 100 µM and a TGI (HL-60(TB) leukemia) of over 100 µM.
